From patent publication US8871788B2, “Substituted N-alkyl and N-acyl tetrahydro-isoquinoline derivatives, preparation and therapeutic use thereof” (Sanofi, priority 2010, dated 2014)

Experiments:
[1] = target: T1, rhesus (Macacca Mulatta) H3 receptor (Macaca mulatta, UniProt Q865E1); assay: Rhesus H3 [3H]-Methylhistamine radioligand binding assay (SPA); design: species or system rhesus monkey (Macacca Mulatta); settings: [3H]-Methylhistamine 2 nM, rhesus H3 membranes, Cheng-Prusoff
T1 construct: 445 amino acid H3 receptor; expressed in transfected cells; host or cells: Flp-In T-REx 293 Cell Line (Invitrogen), pcDNA5/FRT/TO, induced with tetracycline
Description: (§1) Rhesus H3 membranes were prepared from the Flp-In T-REx 293 Cell Line (Invitrogen) stably transfected with pcDNA5/FRT/TO (Invitrogen) containing the rhesus monkey (Macacca Mulatta) 445 amino acid H3 receptor. (Genbank #AY231164). Stably transfected cultures were amplified in tissue culture flasks by standard tissue culture methods and induced to express rhesus H3 by exposure to 500 ng/ml tetracycline (Cellgro) for 24 hours. After induction, cells were dissociated from flasks utilizing Cell Stripper (Cellgro). Cells were centrifuged (1K×g, 5 min) and pellet frozen in an ethanol-dry ice bath to disrupt cell membranes. Frozen cell pellet was re-suspended in 5 mM HEPES (pH 7.4, Invitrogen) at 10 ml/1000 cm2 of harvested cells. The cell suspension was drawn through an 18 gauge needle (2-3×) followed by a 23 gauge needle (2-3×) to further disrupt cell membranes. The cell suspension was centrifuged (40K×g, 30 min). Cell membrane pellet was re-suspended in 5 mM HEPES (pH 7.4, Invitrogen) at a final protein concentration of 10 mg/ml. Rhesus H3 membranes were stored under liquid nitrogen prior to use in [3H]-Methylhistamine and GTPγS radioligand binding assays.
(§2) Rhesus H3 radioligand binding assay was performed using rhesus H3 receptor membranes (prepared as described above), [3H]-Methylhistamine (Perkin Elmer) and WGA SPA beads (wheat germ agglutinin scintillation proximity assay) beads (Amersham). The assay was performed in 96-well Opti-Plates (Packard). Each reaction contained 50 μl rhesus H3 membranes (20-30 μg total protein), 50 μl WGA SPA beads (0.1 μg) and 50 μl of 83Ci/mmol [^3H]-Methylhistamine (final concentration 2 nM) and 50 μl of tested compound. The compounds of this invention and/or vehicle were diluted with binding buffer from 10 mM DMSO stocks. Assay plates were sealed with TopSeal (Perkin Elmer) and mixed on shaker (25° C., 1 hour). Assay plates were read on TopCount scintillation counter (Packard). Results were analyzed by Hill transformation and Ki values were determined by Cheng-Prusoff equation. Similar procedure was employed to determine the binding data for rat.

Rat H3 = Rat H3 (Rattus norvegicus, UniProt Q9QYN8); assay: Rat H3 radioligand binding (similar procedure); settings: rat H3, similar procedure to rhesus binding
Description: as §2

rhesus H3 = target: T2, rhesus H3 (Macaca mulatta, UniProt Q865E1); assay: GTPγS radioligand binding assay, rhesus H3 constitutive functional activity in cell membranes; format: biochemical, rhesus monkey (Macacca Mulatta); settings: relative to basal levels
T2 construct: 445 amino acid H3 receptor; expressed in transfected cells; host or cells: Flp-In T-REx 293 Cell Line (Invitrogen), pcDNA5/FRT/TO, induced with tetracycline
Description: as §1

Rat H3, sequence (Q9QYN8 whole entry): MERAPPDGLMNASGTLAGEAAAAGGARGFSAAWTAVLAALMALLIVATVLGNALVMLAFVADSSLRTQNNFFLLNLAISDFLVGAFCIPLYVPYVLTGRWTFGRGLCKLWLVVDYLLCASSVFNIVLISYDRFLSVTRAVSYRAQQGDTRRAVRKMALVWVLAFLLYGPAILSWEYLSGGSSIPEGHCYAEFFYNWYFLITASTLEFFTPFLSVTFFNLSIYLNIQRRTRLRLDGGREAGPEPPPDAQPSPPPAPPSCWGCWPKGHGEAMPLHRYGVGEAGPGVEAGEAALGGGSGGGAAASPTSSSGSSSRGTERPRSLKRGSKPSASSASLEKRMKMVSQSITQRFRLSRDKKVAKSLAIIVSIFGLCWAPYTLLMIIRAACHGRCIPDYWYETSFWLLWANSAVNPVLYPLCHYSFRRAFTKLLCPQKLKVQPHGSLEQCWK
T1 sequence (Q865E1 1-445): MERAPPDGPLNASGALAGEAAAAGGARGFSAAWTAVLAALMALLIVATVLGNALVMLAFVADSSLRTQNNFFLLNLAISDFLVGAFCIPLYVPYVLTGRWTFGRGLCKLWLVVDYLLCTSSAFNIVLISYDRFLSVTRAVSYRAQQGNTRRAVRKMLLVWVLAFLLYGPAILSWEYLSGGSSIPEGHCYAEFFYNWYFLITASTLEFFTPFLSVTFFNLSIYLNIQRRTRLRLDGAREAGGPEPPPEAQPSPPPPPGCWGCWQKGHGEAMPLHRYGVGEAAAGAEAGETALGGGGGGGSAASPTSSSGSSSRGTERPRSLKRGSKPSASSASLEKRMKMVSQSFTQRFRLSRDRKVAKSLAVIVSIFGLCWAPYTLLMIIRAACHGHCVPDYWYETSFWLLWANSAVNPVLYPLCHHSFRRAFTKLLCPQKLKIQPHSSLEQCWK
T2 sequence (Q865E1 1-445): as above

Row | Compound | Ki [1] | Ki (Rat H3) | GTPγS-35 ASSAY % Inverse Agonism (rhesus H3)
1 | C[C@H]1CCCN1[C@H]1CCN(c2ccc3c(c2)CN(C(=O)C2CCOCC2)CC3)C1 [Example 2, [7-((2S,3′S)-2-Methyl-[1,3′]bipyrrolidinyl-1′-yl)-3,4-dihydro-1H-isoquinolin-2-yl]-(tetrahydro-pyran-4-yl)-methanone] | 0.66 nM | 0.91 nM | −25.5%
2 | CCOC(=O)N1CCC(N2CCc3cc(N4CC[C@H](N5CCC[C@@H]5C)C4)ccc3C2)CC1 [Example 3, 4-[6-((2S,3′S)-2-Methyl-[1,3′]bipyrrolidinyl-1′-yl)-3,4-dihydro-1H-isoquinolin-2-yl]-piperidine-1-carboxylic acid ethyl ester] | 0.38 nM | 0.97 nM | –
3 | C[C@H]1CCCN1[C@H]1CCN(c2ccc3c(c2)CCN(C2CCOCC2)C3)C1.O=C(O)C(F)(F)F [Example 4, 6-((2S,3′S)-2-Methyl-[1,3′]bipyrrolidinyl-1′-yl)-2-(tetrahydro-pyran-4-yl)-1,2,3,4-tetrahydro-isoquinoline hydrochloride] | 0.11 nM | 0.05 nM | −28.0%
4 | CCOC(=O)C1CCC(N2CCc3cc(N4CC[C@H](N5CCC[C@@H]5C)C4)ccc3C2)CC1 (stereo partly drawn) [Example 5, 4-[6-((2S,3′S)-2-Methyl-[1,3′]bipyrrolidinyl-1′-yl)-3,4-dihydro-1H-isoquinolin-2-yl]-cyclohexanecarboxylic acid ethyl ester] | 0.57 nM | 0.59 nM | −40.0%
5 | C[C@H]1CCCN1[C@H]1CCN(c2ccc3c(c2)CCN(C2CCN(C(=O)OC(C)(C)C)C2)C3)C1 (stereo partly drawn) [Example 6, 3-[6-((2S,3′S)-2-Methyl-[1,3′]bipyrrolidinyl-1′-yl)-3,4-dihydro-1H-isoquinolin-2-yl]-pyrrolidine-1-carboxylic acid tert-butyl ester] | 0.9 nM | 0.74 nM | −24.9%
6 | C[C@H]1CCCN1[C@H]1CCN(c2ccc3c(c2)CCN(CC2CCCC2)C3)C1 [Example 7, 2-Cyclopentylmethyl-6-((2S,3′S)-2-methyl-[1,3′]bipyrrolidinyl-1′-yl)-1,2,3,4-tetrahydro-isoquinoline] | 1.2 nM | 0.19 nM | −6.9%
7 | C[C@H]1CCCN1[C@H]1CCN(c2ccc3c(c2)CCN(Cc2ccc4c(c2)OCCO4)C3)C1 [Example 8, 2-(2,3-Dihydro-benzo[1,4]dioxin-6-ylmethyl)-6-((2S,3′S)-2-methyl-[1,3′]bipyrrolidinyl-1′-yl)-1,2,3,4-tetrahydro-isoquinoline] | 0.46 nM | 6.9 nM | −9.1%
8 | C[C@H]1CCCN1[C@H]1CCN(c2ccc3c(c2)CCN(Cc2ccc(F)cc2)C3)C1 [Example 9, 2-(4-Fluoro-benzyl)-6-((2S,3′S)-2-methyl-[1,3′]bipyrrolidinyl-1′-yl)-1,2,3,4-tetrahydro-isoquinoline] | 0.37 nM | 0.19 nM | −6.2%
9 | CC(C)N1CCc2cc(N3CC[C@H](N4CCC[C@@H]4C)C3)ccc2C1 [Example 10, 2-Isopropyl-6-((2S,3′S)-2-methyl-[1,3′]bipyrrolidinyl-1′-yl)-1,2,3,4-tetrahydro-isoquinoline] | 0.75 nM | 0.91 nM | −9.3%
10 | C[C@H]1CCCN1[C@H]1CCN(c2ccc3c(c2)CCN(C2CCC(NC(=O)OC(C)(C)C)CC2)C3)C1 (stereo partly drawn) [Example 11, {4-[6-((2S,3′S)-2-Methyl-[1,3′]bipyrrolidinyl-1′-yl)-3,4-dihydro-1H-isoquinolin-2-yl]-cyclohexyl}-carbamic acid tert-butyl ester] | 0.35 nM | 0.31 nM | −7.9%
11 | COc1ccc(C(=O)N2CCc3cc(N4CC[C@H](N5CCC[C@@H]5C)C4)ccc3C2)cc1 [Example 12, (4-Methoxy-phenyl)-[6-((2S,3′S)-2-methyl-[1,3′]bipyrrolidinyl-1′-yl)-3,4-dihydro-1H-isoquinolin-2-yl]-methanone] | 2.8 nM | 6.2 nM | −26.1%
12 | C[C@H]1CCCN1[C@H]1CCN(c2ccc3c(c2)CCN(C(=O)C(c2ccccc2)c2ccccc2)C3)C1 [Example 13, 1-[6-((2S,3′S)-2-Methyl-[1,3′]bipyrrolidinyl-1′-yl)-3,4-dihydro-1H-isoquinolin-2-yl]-2,2-diphenyl-ethanone] | 3.7 nM | 7.7 nM | −16.1%
13 | C[C@H]1CCCN1[C@H]1CCN(c2ccc3c(c2)CCN(C(=O)c2cccnc2)C3)C1 [Example 14, [6-((2S,3′S)-2-Methyl-[1,3′]bipyrrolidinyl-1′-yl)-3,4-dihydro-1H-isoquinolin-2-yl]-pyridin-3-yl-methanone] | 0.28 nM | 2.6 nM | −17.2%
14 | C[C@H]1CCCN1[C@H]1CCN(c2ccc3c(c2)CCN(C(=O)c2ccoc2)C3)C1 [Example 15, Furan-3-yl-[6-((2S,3′S)-2-methyl-[1,3′]bipyrrolidinyl-1′-yl)-3,4-dihydro-1H-isoquinolin-2-yl]-methanone] | 0.22 nM | 2.7 nM | −16.8%
15 | C[C@H]1CCCN1[C@H]1CCN(c2ccc3c(c2)CCN(C(=O)c2ccccc2)C3)C1 [Example 16, [6-((2S,3′S)-2-Methyl-[1,3′]bipyrrolidinyl-1′-yl)-3,4-dihydro-1H-isoquinolin-2-yl]-phenyl-methanone] | 0.29 nM | 7.3 nM | −18.9%
16 | C[C@H]1CCCN1[C@H]1CCN(c2ccc3c(c2)CCN(C(=O)c2ccc(F)cc2)C3)C1 [Example 17, (4-Fluoro-phenyl)-[6-((2S,3′S)-2-methyl-[1,3′]bipyrrolidinyl-1′-yl)-3,4-dihydro-1H-isoquinolin-2-yl]-methanone] | 0.19 nM | 3.1 nM | −10.4%
17 | C[C@H]1CCCN1[C@H]1CCN(c2ccc3c(c2)CCN(C(=O)C2CCCCC2)C3)C1 [Example 18, Cyclohexyl-[6-((2S,3′S)-2-methyl-[1,3′]bipyrrolidinyl-1′-yl)-3,4-dihydro-1H-isoquinolin-2-yl]-methanone] | 0.094 nM | 0.24 nM | −10.7%
18 | C[C@H]1CCCN1[C@H]1CCN(c2ccc3c(c2)CCN(C(=O)C2CCOCC2)C3)C1 [Example 19, [6-((2S,3′S)-2-Methyl-[1,3′]bipyrrolidinyl-1′-yl)-3,4-dihydro-1H-isoquinolin-2-yl]-(tetrahydro-pyran-4-yl)-methanone] | 0.12 nM | 0.22 nM | −17.4%
19 | C[C@H]1CCCN1[C@H]1CCN(c2ccc3c(c2)CCN(C(=O)c2cc4c(ccn4CCOC[Si](C)(C)C)s2)C3)C1 [Example 20, [6-((2S,3′S)-2-Methyl-[1,3′]bipyrrolidinyl-1′-yl)-3,4-dihydro-1H-isoquinolin-2-yl]-[4-(2-trimethylsilanylmethoxy-ethyl)-4H-thieno[3,2-b]pyrrol-2-yl]-methanone] | 22 nM | 140 nM | −23.0%
20 | C[C@H]1CCCN1[C@H]1CCN(c2ccc3c(c2)CCN(C(=O)C2CCCC2)C3)C1 [Example 21, Cyclopentyl-[6-((2S,3′S)-2-methyl-[1,3′]bipyrrolidinyl-1′-yl)-3,4-dihydro-1H-isoquinolin-2-yl]-methanone] | 0.15 nM | 0.51 nM | −12.2%
21 | COc1cccc(S(=O)(=O)N2CCc3cc(N4CC[C@H](N5CCC[C@@H]5C)C4)ccc3C2)c1.O=C(O)C(F)(F)F [Example 22, 2-(3-Methoxy-benzenesulfonyl)-6-((2S,3′S)-2-methyl-[1,3′]bipyrrolidinyl-1′-yl)-1,2,3,4-tetrahydro-isoquinoline; compound with trifluoro-acetic acid] | 25 nM | 15 nM | −27.7%
22 | COc1cccc(NC(=O)N2CCc3cc(N4CC[C@H](N5CCC[C@@H]5C)C4)ccc3C2)c1 [Example 23, 6-((2S,3′S)-2-Methyl-[1,3′]bipyrrolidinyl-1′-yl)-3,4-dihydro-1H-isoquinoline-2-carboxylic acid (3-methoxy-phenyl)-amide] | 11 nM | 280 nM | −22.5%
